Measured values taken from paper PMC7129073 (Clinical Microbiology and Infection, 2015).
Converted amounts (≈) assume the structure as drawn. Where two headings read alike, the source gives them in different places. Blank lines part the entries; values can stand above or below the molecule they belong to.

Legend:
E. coli [1] = experiment: E-test susceptibility; assay type: cell-based, Escherichia coli
PRSP = experiment: Broth microdilution; assay type: cell-based, Streptococcus pneumoniae
S. pneumoniae [2] = experiment: Broth microdilution; assay type: cell-based, Streptococcus pneumoniae
H.influenzae = experiment: Broth microdilution; assay type: cell-based, Haemophilus influenzae
S. pneumoniae [3] = experiment: MIC of invasive strains, Saint George Hospital 2001–2004; assay type: cell-based, Streptococcus pneumoniae
ERSP = experiment: Broth microdilution; assay type: cell-based, Streptococcus pneumoniae
MSSA = experiment: Agar dilution MIC; assay type: cell-based, Staphylococcus aureus
S. pneumoniae (SPN) = experiment: NCCLS broth microdilution, fluoroquinolones 1999–2004; assay type: cell-based, Streptococcus pneumoniae; conditions: for MIC50 / MIC90: Streptococcus pneumoniae
K. pneumoniae [4] = experiment: E-test susceptibility; assay type: cell-based, Klebsiella pneumoniae
Enterobacter spp = experiment: E-test susceptibility; assay type: cell-based
Acinetobacter = experiment: Disk diffusion; assay type: cell-based; conditions: 37 isolates selected as resistant to beta-lactams
Escherichia coli = experiment: Vitek 2 susceptibility, urine isolates of children; assay type: cell-based
K. oxytoca = experiment: E-test susceptibility; assay type: cell-based, Klebsiella oxytoca
K. pneumoniae [5] = experiment: MIC; assay type: cell-based, Klebsiella pneumoniae; conditions: Klebsiella pneumoniae
E. coli [6] = experiment: SMART 2003 Europe, microdilution; assay type: cell-based, Escherichia coli; conditions: 1106 isolates
Enterobacteriaceae = experiment: SMART 2003 Europe, microdilution; assay type: cell-based; conditions: 1948 isolates
[7] = system: inducible Enterobacteriaceae; experiment: SMART 2003, intraabdominal isolates; assay type: cell-based
Klebsiella = experiment: SMART 2003 Europe, microdilution; assay type: cell-based, Klebsiella spp.; conditions: 341 isolates
Shigella spp. = experiment: Disk diffusion, stool isolates Tehran; assay type: cell-based; conditions: 96 isolates
[8] = system: Streptococcus agalactiae strains P0162 and P0425; experiment: Microdilution; assay type: cell-based
F. necrophorum = experiment: E-test, 13 clinical isolates; assay type: cell-based, Fusobacterium necrophorum
[9] = ICU, SRGA breakpoints, tigecycline tentative S ≤2 μg/ml
[10] = NCCLS breakpoints (Amox/Clav 2/1 mcg/mL)

MIC90 (PRSP): 8 µg/mL (≈ 18.9 µM)
MIC90 (S. pneumoniae [2]): 8 µg/mL (≈ 18.9 µM)
MIC90 (H.influenzae): 2 µg/mL (≈ 4.71 µM)
MIC90 (ERSP): 8 µg/mL (≈ 18.9 µM)
SMILES: CO/N=C(\C(=O)N[C@@H]1C(=O)N2C(C(=O)O)=C(COC(N)=O)CS[C@H]12)c1ccco1 [Cefuroxime, cefuroxim]
Susceptible isolates (E. coli [1]; [9]): 92%
Susceptible isolates (E. coli [1]; non ICU): 94%
%Sus (PRSP; [10]): 0.7%
%Sus (S. pneumoniae [2]; [10]): 65.2%
%Sus (H.influenzae; NCCLS): 96.7%
% S (S. pneumoniae [3]): 95.2%
%R (S. pneumoniae [3]): 4.8%
%Sus (ERSP; [10]): 26.0%

MIC50 (MSSA; Staphylococcus aureus, MSSA): < 0.25 µg/mL
MIC90 (MSSA; Staphylococcus aureus, MSSA): < 0.25 µg/mL
MIC range (MSSA; n = 200): 125 to 16000 µg/mL
SMILES: Cc1onc(-c2ccccc2Cl)c1C(=O)N[C@@H]1C(=O)N2[C@@H]1SC(C)(C)[C@@H]2C(=O)O [Cloxacilin, cloxacillin]

MIC range (S. pneumoniae (SPN)): 0.25 to 2 µg/mL
MIC50 (S. pneumoniae (SPN)): 0.5 µg/mL (≈ 1.28 µM)
MIC90 (S. pneumoniae (SPN)): 1 µg/mL (≈ 2.57 µM)
MIC50 (S. pneumoniae (SPN); 1999 (554)): ≤ 0.03 µg/mL
MIC90 (S. pneumoniae (SPN); 1999 (554)): ≤ 0.03 µg/mL
MIC50 (S. pneumoniae (SPN); 2000 (508)): ≤ 0.03 µg/mL
MIC90 (S. pneumoniae (SPN); 2000 (508)): ≤ 0.03 µg/mL
MIC50 (S. pneumoniae (SPN); 2001 (1.435)): 0.016 µg/mL (≈ 0.0411 µM)
MIC90 (S. pneumoniae (SPN); 2001 (1.435)): 0.03 µg/mL (≈ 0.077 µM)
MIC50 (S. pneumoniae (SPN); 2002 (1.502)): 0.016 µg/mL (≈ 0.0411 µM)
MIC90 (S. pneumoniae (SPN); 2002 (1.502)): 0.03 µg/mL (≈ 0.077 µM)
MIC50 (S. pneumoniae (SPN); 2003 (890)): 0.016 µg/mL (≈ 0.0411 µM)
MIC90 (S. pneumoniae (SPN); 2003 (890)): 0.03 µg/mL (≈ 0.077 µM)
MIC50 (S. pneumoniae (SPN); 2004 (1.003)): 0.016 µg/mL (≈ 0.0411 µM)
MIC90 (S. pneumoniae (SPN); 2004 (1.003)): 0.03 µg/mL (≈ 0.077 µM)
MIC50 (S. pneumoniae (SPN); All years (5.892)): 0.016 µg/mL (≈ 0.0411 µM)
MIC90 (S. pneumoniae (SPN); All years (5.892)): 0.03 µg/mL (≈ 0.077 µM)
MIC90 (S. pneumoniae (SPN); read-out: MIC90 during the six years, 1999–2004): 0.03 µg/mL (≈ 0.077 µM)
SMILES: CO/N=C1\CN(c2nc3c(cc2F)c(=O)c(C(=O)O)cn3C2CC2)CC1CN (stereo not drawn) [GEMI, gemifloxacin]
% I (S. pneumoniae (SPN); 1999 (554)): 0.4%
% S (S. pneumoniae (SPN); 1999 (554)): 99.6%
%R (S. pneumoniae (SPN); 1999 (554)): 0.0%
% I (S. pneumoniae (SPN); 2000 (508)): 0.2%
% S (S. pneumoniae (SPN); 2000 (508)): 99.6%
%R (S. pneumoniae (SPN); 2000 (508)): 0.2%
% I (S. pneumoniae (SPN); 2001 (1.435)): 0.3%
% S (S. pneumoniae (SPN); 2001 (1.435)): 99.4%
%R (S. pneumoniae (SPN); 2001 (1.435)): 0.3%
% I (S. pneumoniae (SPN); 2002 (1.502)): 0.3%
% S (S. pneumoniae (SPN); 2002 (1.502)): 99.5%
%R (S. pneumoniae (SPN); 2002 (1.502)): 0.2%
% I (S. pneumoniae (SPN); 2003 (890)): 0.0%
% S (S. pneumoniae (SPN); 2003 (890)): 100.0%
%R (S. pneumoniae (SPN); 2003 (890)): 0.0%
% I (S. pneumoniae (SPN); 2004 (1.003)): 0.7%
% S (S. pneumoniae (SPN); 2004 (1.003)): 99.2%
%R (S. pneumoniae (SPN); 2004 (1.003)): 0.1%
% I (S. pneumoniae (SPN); All years (5.892)): 0.3%
% S (S. pneumoniae (SPN); All years (5.892)): 99.5%
%R (S. pneumoniae (SPN); All years (5.892)): 0.2%

SMILES: CN(C)c1cc(NC(=O)CNC(C)(C)C)c(O)c2c1C[C@H]1C[C@H]3[C@H](N(C)C)C(O)=C(C(N)=O)C(=O)[C@@]3(O)C(O)=C1C2=O [Tigecycline]
Susceptible isolates (K. pneumoniae [4]; ICU): 93%
Susceptible isolates (K. pneumoniae [4]; non ICU): 98%
Susceptible isolates (Enterobacter spp; ICU): 91%
Susceptible isolates (Enterobacter spp; non ICU): 96%

SMILES: CC1(C)S[C@@H]2[C@H](NC(=O)C(C(=O)O)c3ccccc3)C(=O)N2[C@H]1C(=O)O (stereo partly drawn) [carbenicillin]
resistant isolates (Acinetobacter): 100.0%

SMILES: CC(=O)OCC1=C(C(=O)O)N2C(=O)[C@@H](NC(=O)Cc3cccs3)[C@H]2SC1 [cefalothin]
susceptibility rate (Escherichia coli; paediatric surgical unit (PSU)): 19%
susceptibility rate (Escherichia coli; paediatric units (PU)): 66%

SMILES: CO/N=C(\C(=O)N[C@@H]1C(=O)N2C(C(=O)[O-])=C(C[N+]3(C)CCCC3)CS[C@H]12)c1csc(N)n1 [cefepime]
resistant isolates (Acinetobacter): 21.6%
Susceptible isolates (E. coli [1]; [9]): 98%
Susceptible isolates (E. coli [1]; non ICU): 99%
Susceptible isolates (K. pneumoniae [4]; ICU): 98%
Susceptible isolates (K. pneumoniae [4]; non ICU): 100%
Susceptible isolates (K. oxytoca; ICU): 100%
Susceptible isolates (K. oxytoca; non ICU): 96%
MIC (K. pneumoniae [5]): > 64 µg/mL
per cent susceptible (E. coli [6]): 96%
Susceptible isolates (Enterobacter spp; ICU): 84%
Susceptible isolates (Enterobacter spp; non ICU): 92%
per cent susceptible (Enterobacteriaceae): 96%
% susceptible ([7]; A/P (N = 200)): 89%
% susceptible ([7]; EU (N = 354)): 97%
% susceptible ([7]; LA (N=113)): 88%
% susceptible ([7]; NA (N = 163)): 92%
per cent susceptible (Klebsiella): 94%

SMILES: CCN1CCN(C(=O)N[C@@H](C(=O)N[C@@H]2C(=O)N3C(C(=O)O)=C(CSc4nnnn4C)CS[C@H]23)c2ccc(O)cc2)C(=O)C1=O [cefoperazone]
resistant isolates (Acinetobacter): 100.0%

SMILES: CO/N=C(\C(=O)N[C@@H]1C(=O)N2C(C(=O)O)=CCS[C@H]12)c1csc(N)n1 [ceftizoxime]
sensitive (Shigella spp.): 85%
resistant isolates (Acinetobacter): 86.5%

SMILES: NC1CCN(c2c(F)cc3c(=O)c(C(=O)O)cn(C4CC4)c3c2Cl)C1 (stereo not drawn) [clinafloxacin]
MIC ([8]; strain P0162 (ParC Ser79Phe, GyrA Glu85Ala)): 0.25 µg/mL (≈ 0.683 µM)
MIC ([8]; strain P0425 (ParC Ser79Phe, GyrA Glu85Lys)): 0.75 µg/mL (≈ 2.05 µM)

SMILES: C[C@H]1c2cccc(O)c2C(=O)C2=C(O)[C@]3(O)C(=O)C(C(N)=O)=C(O)[C@@H](N(C)C)[C@@H]3[C@@H](O)[C@@H]21 [doxycycline]
MIC range (F. necrophorum): 0.016 to 0.75 µg/mL
MIC50 (F. necrophorum; Fusobacterium necrophorum): 0.064 µg/mL (≈ 0.144 µM)
MIC90 (F. necrophorum; Fusobacterium necrophorum): 0.19 µg/mL (≈ 0.428 µM)
resistant isolates (Acinetobacter): 54.1%
